Results as given in patent US11564923B2, “Compounds and pharmaceutical compositions thereof for the treatment of inflammatory disorders” (Galapagos NV, priority 2017, dated 2023).

Columns and labels:
[1] = system: IFNα stimulation, Phospho-STAT1 on CD4+ cells in human whole blood; test: Human whole blood assay (hWBA), IFNα stimulation; assay type: cell-based; settings: Universal type I IFN 1000 U/mL, pSTAT1 on CD4+ cells, read-out: IFN α IC50
Protocol: (§1) A flow cytometry analysis is performed to establish JAK1 and TYK2 compound potency ex vivo using human whole blood. Therefore, blood is taken from human volunteers who gave informed consent, then equilibrated for 30 min at 37° C. under gentle rocking and aliquoted in Eppendorf tubes. Compound is added at different concentrations and incubated at 37° C. for 30 min under gentle rocking and subsequently stimulated for 20 min at 37° C. under gentle rocking with interleukin 6 (IL-6) for JAK-dependent pathway stimulation or IFNα for TYK2-dependent pathway stimulation. Phospho-STAT1 is then evaluated using FACS analysis.
(§2) The remaining diluted Lyse/Fix buffer is discarded.
(§3) A 3-fold dilution series of the compound is prepared in DMSO (10 mM stock solution). Control-treated samples received DMSO instead of compound. All samples are incubated with a 1% final DMSO concentration.
Human blood is collected in heparinized tubes. The blood is divided in aliquots of 148.5 μL. Then, 1.5 μL of the test compound dilution is added to each blood aliquot and the blood samples are incubated for 30 min at 37° C. under gentle rocking. One and a half microliter of 10-fold diluted IL-6 stock solution or Universal type 1 IFN is added to the blood samples (final concentration 10 ng/mL and 1000 U/mL, respectively) and samples are incubated at 37° C. for 20 min under gentle rocking.
At the end of the stimulation period, 3 mL of 1× pre-warmed Lyse/Fix buffer is immediately added to the blood samples, vortexed briefly and incubated for 15 min at 37° C. in a water bath in order to lyse red blood cells and fix leukocytes.
Tubes are centrifuged for 5 min at 400×g at 4° C. The cell pellet is washed with 3 mL of cold 1×PBS, and after centrifugation the cell pellet is resuspended in 100 μL of ice-cold 1×PBS and 900 μL ice-cold 100% MeOH is added. Cells are then incubated at 4° C. for 30 min for permeabilization.
Permeabilized cells are then washed with 1×PBS containing 3% BSA and finally resuspended in 80 μL of 1×PBX containing 3% BSA.
(§4) Cells are then washed once with 1×PBS and analyzed on a FACSCanto II flow cytometer (BD Biosciences).
(§5) 50,000 total events are counted and Phospho-STAT1 positive cells are measured after gating on CD4+ cells, in the lymphocyte gate.

[2] = molecular target: T1, Recombinant human TYK2 catalytic domain (amino acids 871-1187) (Homo sapiens, UniProt P29597); test: TYK2 ADPglo kinase assay; assay type: biochemical; also: 12 µM ATP
T1 construct: catalytic domain (amino acids 871-1187)
T1 sequence (P29597 871-1187): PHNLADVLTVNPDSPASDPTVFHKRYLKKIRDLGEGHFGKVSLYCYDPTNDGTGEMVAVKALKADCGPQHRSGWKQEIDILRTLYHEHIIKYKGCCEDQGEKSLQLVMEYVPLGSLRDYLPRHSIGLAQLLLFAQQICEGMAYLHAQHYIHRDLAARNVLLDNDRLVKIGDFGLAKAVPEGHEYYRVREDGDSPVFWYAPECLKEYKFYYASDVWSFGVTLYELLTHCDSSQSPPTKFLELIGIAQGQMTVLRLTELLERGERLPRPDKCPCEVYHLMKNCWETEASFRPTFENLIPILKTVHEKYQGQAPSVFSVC
Protocol: After 120 min at room temperature, reactions were stopped and the remaining ATP is depleted by adding 5 μL/well of ADP Glo Reagent (Promega, catalog number V912B). After 40 min at room temperature, 10 μl Kinase Detection Reagent (Kinase Detection Substrate (Promega, catalog number V914B) dissolved in Kinase Detection Buffer (Promega, catalog number V913B)) is added to convert ADP to ATP and to measure this newly synthesized ATP in a luciferase/luciferin reaction. Readout is performed after 30 min incubation at room temperature using the Envision. Kinase activity is calculated by subtracting the relative light units (RLU) obtained in the presence of a positive control inhibitor (10 μM staurosporine) from the RLU obtained in the presence of vehicle. The ability of a test compound to inhibit this activity (or percentage inhibition) is determined as:
RLU test compound=RLU determined for sample with test compound present
RLU control=RLU determined for sample with positive control inhibitor
RLU vehicle=RLU determined in the presence of vehicle
Dose dilution series were prepared for the compounds enabling the testing of dose-response effects in the TYK2 assay and the calculation of the IC50 for the compound. Each compound is routinely tested at concentration of 20 μM followed by a 1/5 serial dilution, 10 points in a final concentration of 1% DMSO. […] The data are expressed as the average IC50 from the assays.

[3] = system: IL-12 activation of STAT4 in NK-92 cells; test: IL-12 activation of STAT4 in NK-92 cells using AphaLISA SureFire technology; assay type: cell-based; settings: Homo sapiens, NK92; IL-12 activation of STAT4 in NK-92 cells, AlphaLISA SureFire; average IC50; read-out: IL12 pSTAT4 IC50
How it was run: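 NK-92 cells, starved of rhIL-2 overnight, were stimulated with rhIL-12 for 30 min at 37 °C with test compounds, then lysed. Phospho-STAT4 (Tyr693) was read by AlphaLISA SureFire. Percent inhibition versus the vehicle-plus-trigger signal was fitted by sigmoidal nonlinear regression to give IC50, averaged over experiments.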

[4] = system: IFNα activation of STAT1 in PBMC; test: IFNα activation of STAT1 in PBMC; assay type: cell-based; settings: Homo sapiens; IFNα activation of STAT1 in PBMC; average IC50; read-out: IFNα signaling inhibitory potency IC50
How it was run: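 Human PBMC, with red cells lysed by NH4Cl, were pre-treated with compound for 30 min at 37 °C and 5% CO2. They were then stimulated for 30 min with recombinant human IFNα at 5 ng/mL final.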

[5] = molecular target: T1, Recombinant human TYK2 catalytic domain (amino acids 871-1187); test: TYK2 radioactive assay polyGT substrate; assay type: biochemical; also: 0.1 µM ATP
How it was run: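 Reaction at 30° C. for 120 min, ended with 150 mM phosphoric acid, washed, counted; percent inhibition scaled between vehicle and 10 μM staurosporine cpm.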

[6] = system: IL-6 stimulation, Phospho-STAT1 on CD4+ cells in human whole blood; test: Human whole blood assay (hWBA), IL-6 stimulation; assay type: cell-based; settings: IL-6 10 ng/mL, pSTAT1 on CD4+ cells, read-out: IL6 IC50
Protocol: as §1, §2, §3
Human blood is collected in heparinized tubes. The blood is divided in aliquots of 148.5 μL. Then, 1.5 μL of the test compound dilution is added to each blood aliquot and the blood samples are incubated for 30 min at 37° C. under gentle rocking. […]
as §4, §5

Compound	IC50 [1] [nM]	IC50 [2] [nM]	IC50 [3] [nM]	IC50 [5] [nM]	IC50 [6] [nM]	IC50 [4] [nM]
Cc1cc(C#N)ncc1Oc1cc(Nc2ccc(C(=O)N3CC(N(C)C)C3)cn2)c2ncn(C)c2n1 [Compound 106, 5-[7-[[5-[3-(dimethylamino)azetidine-1-carbonyl]-2-pyridyl]amino]-3-methyl-imidazo[4,5-b]pyridin-5-yl]oxy-4-methyl-pyridine-2-carbonitrile]	533	–	150	1.43	–	102
Cc1cc(C#N)ncc1Oc1cc(Nc2ccc(C(=O)N3CC(C(C)(C)O)C3)cn2)c2ncn(C)c2n1 [Compound 102, 5-[7-[[5-[3-(1-hydroxy-1-methyl-ethyl)azetidine-1-carbonyl]-2-pyridyl]amino]-3-methyl-imidazo[4,5-b]pyridin-5-yl]oxy-4-methyl-pyridine-2-carbonitrile]	175	–	302	1.98	–	75
Cc1cc(C#N)ncc1Oc1cc(Nc2ccc(N3C[C@H](C)O[C@@H](C)C3)nn2)c2ncn(C)c2n1 [Compound 166, 5-[7-[[6-[(2S,6S)-2,6-dimethylmorpholin-4-yl]pyridazin-3-yl]amino]-3-methylimidazo[4,5-b]pyridin-5-yl]oxy-4-methylpyridine-2-carbonitrile]	1450	2.28	97	–	–	84
Cc1cc(C#N)ncc1Oc1cc(Nc2ccc(C(=O)N3CCN(C)CC3)nn2)c2ncn(C)c2n1 [Compound 150, 4-methyl-5-[3-methyl-7-[[6-(4-methylpiperazine-1-carbonyl)pyridazin-3-yl]amino]imidazo[4,5-b]pyridin-5-yl]oxypyridine-2-carbonitrile]	269	1.1	1020	–	6810	278
Cc1cc(C#N)ncc1Oc1cc(Nc2ccc(C(=O)N3CC[C@H](O)C3)cn2)c2ncn(C)c2n1 [Compound 112, 5-[7-[[5-[(3S)-3-hydroxypyrrolidine-1-carbonyl]-2-pyridyl]amino]-3-methyl-imidazo[4,5-b]pyridin-5-yl]oxy-4-methyl-pyridine-2-carbonitrile]	447	–	1100	4.29	–	130
Cc1cc(C#N)ncc1Oc1cc(Nc2ccc(N3CCOC(C#N)C3)nn2)c2ncn(C)c2n1 (stereo not drawn) [Compound 171, 4-[6-[[5-(6-cyano-4-methylpyridin-3-yl)oxy-3-methylimidazo[4,5-b]pyridin-7-yl]amino]pyridazin-3-yl]morpholine-2-carbonitrile]	–	0.88	127	–	–	45

Now those with a lower IC50 [3], led by results:

IC50 [1] [nM]	IC50 [2] [nM]	IC50 [3] [nM]	IC50 [5] [nM]	IC50 [6] [nM]	Compound	IC50 [4] [nM]
757	0.93	40.5	–	–	Cc1cc(C#N)ncc1Oc1cc(Nc2ccc(N3C[C@@H](C)O[C@H](C)C3)nn2)c2ncn(C)c2n1 (racemic) [Compound 176, 4-methyl-5-[3-methyl-7-[[6-[rac-(2R,6R)-2,6-dimethylmorpholin-4-yl]pyridazin-3-yl]amino]imidazo[4,5-b]pyridin-5-yl]oxypyridine-2-carbonitrile]	66.5
–	1.3	33	–	–	Cc1cc(C#N)ncc1Oc1cc(Nc2ccc(N3CCOC(C(C)C)C3)nn2)c2ncn(C)c2n1 (stereo in doubt) [Compound 173, 4-methyl-5-[3-methyl-7-[[6-[(2R)-2-propan-2-ylmorpholin-4-yl]pyridazin-3-yl]amino]imidazo[4,5-b]pyridin-5-yl]oxypyridine-2-carbonitrile]	114
–	1.2	24	–	–	Cc1cc(C#N)ncc1Oc1cc(Nc2ccc(N3CCOC(C(C)C)C3)nn2)c2ncn(C)c2n1 (stereo in doubt) [Compound 177, 4-methyl-5-[3-methyl-7-[[6-[(2S)-2-propan-2-ylmorpholin-4-yl]pyridazin-3-yl]amino]imidazo[4,5-b]pyridin-5-yl]oxypyridine-2-carbonitrile]	71
–	0.92	58	–	–	Cc1cc(C#N)ncc1Oc1cc(Nc2ccc(N3CCO[C@H](C)C3)nn2)c2ncn(C)c2n1 [Compound 172, 4-methyl-5-[3-methyl-7-[[6-[(2R)-2-methylmorpholin-4-yl]pyridazin-3-yl]amino]imidazo[4,5-b]pyridin-5-yl]oxypyridine-2-carbonitrile]	66
–	1.46	73	–	–	Cc1cc(C#N)ncc1Oc1cc(Nc2ccc(N3CC4CCC(C3)O4)nn2)c2ncn(C)c2n1 [Compound 170, 4-methyl-5-[3-methyl-7-[[6-(8-oxa-3-azabicyclo[3.2.1]octan-3-yl)pyridazin-3-yl]amino]imidazo[4,5-b]pyridin-5-yl]oxypyridine-2-carbonitrile]	83
–	1.03	61	–	–	Cc1cc(C#N)ncc1Oc1cc(Nc2ccc(N3C[C@@H]4C[C@H]3CO4)nn2)c2ncn(C)c2n1 [Compound 174, 4-methyl-5-[3-methyl-7-[[6-[(1S,4S)-2-oxa-5-azabicyclo[2.2.1]heptan-5-yl]pyridazin-3-yl]amino]imidazo[4,5-b]pyridin-5-yl]oxypyridine-2-carbonitrile]	72
–	0.48	56	0.84	–	Cc1cc(C#N)ncc1Oc1cc(Nc2ccc(C(=O)N3CCN(C4CC4)CC3)cn2)c2ncn(C)c2n1 [Compound 48, 5-[7-[[5-(4-cyclopropylpiperazine-1-carbonyl)pyridin-2-yl]amino]-3-methylimidazo[4,5-b]pyridin-5-yl]oxy-4-methylpyridine-2-carbonitrile]	63
1070	2.39	87	–	–	Cc1cc(C#N)ncc1Oc1cc(Nc2ccc(N3C[C@@H](C)O[C@H](C)C3)nn2)c2ncn(C)c2n1 [Compound 168, 5-[7-[[6-[(2R,6R)-2,6-dimethylmorpholin-4-yl]pyridazin-3-yl]amino]-3-methylimidazo[4,5-b]pyridin-5-yl]oxy-4-methylpyridine-2-carbonitrile]	82
